Measured values as given in patent US12558337B2, “Formulations comprising melflufen” (ON[…], priority 2019, dated 2026).
Where a name gives a salt, the structure may show the parent alone.

Assay: Stability of liquid formulations containing a melflufen salt and propylene glycol at room temperature (HPLC-MS)
Assay type: physicochemical
Conditions: for Purity of melfufen in the liquid formulation containing a melfufen salt and propylene glycol at RT: 20 mg/mL in propylene glycol, RT (20-25° C.); for stability on storage: in propylene glycol, room temperature (RT), over 7 weeks
Procedure: The solubility and stability of ethanesulfonic acid, p-toluenesulfonic acid and hydrochloric acid salts of melflufen in propylene glycol were investigated. 10 mg of each melflufen salt was transferred to transparent 4 mL vials and propylene glycol (Merck Lot # K51750378936, 1.07478.2500) was added to a concentration of 20 mg/mL. The vials were shaken for a short time and stored at room temperature (RT, 20-25° C.).
The stability of the melflufen salt solutions were analysed at weekly time points by Analytical HPLC-MS using an Agilent 1100 series Liquid Chromatograph/Mass Selective Detector (MSD) (Single Quadrupole) equipped with an electrospray interface and a UV diode array detector. Analysis was performed by using an ACE 3 C8 (3.0×50 mm) column with a gradient of 10-97% acetonitrile in 0.1% aqueous TFA over 3 min and a flow of 1 mL/min. UV was monitored at 305 nm. At each time point (0, 1, 2, 3, 4, 5, 6 and 7 weeks) 10 μL of the melflufen solution was diluted with 490 μL of acetonitrile before HPLC-MS analysis.

CCOC(=O)[C@H](Cc1ccc(F)cc1)NC(=O)[C@@H](N)Cc1ccc(N(CCCl)CCCl)cc1.CCS(=O)(=O)O [melflufen ethanesulfonic acid salt, ethanesulfonic acid;ethyl (2S)-2-[[(2S)-2-amino-3-[4-[bis(2-chloroethyl)amino]phenyl]propanoyl]amino]-3-(4-fluorophenyl)propanoate]
Purity of melfufen in the liquid formulation containing a melfufen salt and propylene glycol at RT (0 weeks): 100 % relative peak area | Purity of melfufen in the liquid formulation containing a melfufen salt and propylene glycol at RT (1 week): 95 % relative peak area | Purity of melfufen in the liquid formulation containing a melfufen salt and propylene glycol at RT (2 weeks): 94 % relative peak area | Purity of melfufen in the liquid formulation containing a melfufen salt and propylene glycol at RT (3 weeks): 93 % relative peak area | Purity of melfufen in the liquid formulation containing a melfufen salt and propylene glycol at RT (4 weeks): 94 % relative peak area | Purity of melfufen in the liquid formulation containing a melfufen salt and propylene glycol at RT (5 weeks): 89 % relative peak area | Purity of melfufen in the liquid formulation containing a melfufen salt and propylene glycol at RT (6 weeks): 88 % relative peak area | Purity of melfufen in the liquid formulation containing a melfufen salt and propylene glycol at RT (7 weeks): 87 % relative peak area | stability on storage: good stability

CCOC(=O)[C@H](Cc1ccc(F)cc1)NC(=O)[C@@H](N)Cc1ccc(N(CCCl)CCCl)cc1 [melflufen hydrochloric acid salt, L-Melphalanyl-4-fluoro-L-phenylalanine ethyl ester, reference compound]
Purity of melfufen in the liquid formulation containing a melfufen salt and propylene glycol at RT (0 weeks): 100 % relative peak area | Purity of melfufen in the liquid formulation containing a melfufen salt and propylene glycol at RT (1 week): 100 % relative peak area | Purity of melfufen in the liquid formulation containing a melfufen salt and propylene glycol at RT (2 weeks): 95 % relative peak area | Purity of melfufen in the liquid formulation containing a melfufen salt and propylene glycol at RT (3 weeks): 94 % relative peak area | Purity of melfufen in the liquid formulation containing a melfufen salt and propylene glycol at RT (4 weeks): 92 % relative peak area | Purity of melfufen in the liquid formulation containing a melfufen salt and propylene glycol at RT (5 weeks): 89 % relative peak area | Purity of melfufen in the liquid formulation containing a melfufen salt and propylene glycol at RT (6 weeks): 87 % relative peak area | Purity of melfufen in the liquid formulation containing a melfufen salt and propylene glycol at RT (7 weeks): 85 % relative peak area | stability on storage: good stability

CCOC(=O)[C@H](Cc1ccc(F)cc1)NC(=O)[C@@H](N)Cc1ccc(N(CCCl)CCCl)cc1.Cc1ccc(S(=O)(=O)O)cc1 [melflufen p-toluenesulfonic acid salt, Ethyl (2S)-2-[[(2S)-2-amino-3-[4-[bis(2-chloroethyl)amino]phenyl]propanoyl]amino]-3-(4-fluorophenyl)propanoate;4-methylbenzenesulfonic acid]
Purity of melfufen in the liquid formulation containing a melfufen salt and propylene glycol at RT (0 weeks): 100 % relative peak area | Purity of melfufen in the liquid formulation containing a melfufen salt and propylene glycol at RT (1 week): 96 % relative peak area | Purity of melfufen in the liquid formulation containing a melfufen salt and propylene glycol at RT (2 weeks): 95 % relative peak area | Purity of melfufen in the liquid formulation containing a melfufen salt and propylene glycol at RT (3 weeks): 93 % relative peak area | Purity of melfufen in the liquid formulation containing a melfufen salt and propylene glycol at RT (4 weeks): 91 % relative peak area | Purity of melfufen in the liquid formulation containing a melfufen salt and propylene glycol at RT (5 weeks): 89 % relative peak area | Purity of melfufen in the liquid formulation containing a melfufen salt and propylene glycol at RT (6 weeks): 88 % relative peak area | Purity of melfufen in the liquid formulation containing a melfufen salt and propylene glycol at RT (7 weeks): 87 % relative peak area | stability on storage: good stability
